Source: PubChem BioAssay (NCI)
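Cells were grown in 96-well plates and exposed to each compound for 48 hours at five concentrations; endpoints were interpolated linearly between bracketing concentrations, or set to the highest concentration if not reached. TGI: concentration producing complete growth inhibition.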

Tests used:
Assay in all cases: growth of human tumour cells (NCI), 48 h
RPMI-8226 leukemia = system: RPMI-8226 leukemia
A549 NSCLC = system: A549 NSCLC
OVCAR-8 ovarian = system: OVCAR-8 ovarian
RXF 393 renal = system: RXF 393 renal
SF-539 CNS = system: SF-539 CNS
OVCAR-4 ovarian = system: OVCAR-4 ovarian
MDA-MB-231 breast = system: MDA-MB-231 breast
MALME-3M melanoma = system: MALME-3M melanoma
HL-60(TB) leukemia = system: HL-60(TB) leukemia
HS 578T breast = system: HS 578T breast
NCI-H460 lung = system: NCI-H460 lung
SF-268 CNS = system: SF-268 CNS
HCT-15 colon = system: HCT-15 colon
T-47D breast = system: T-47D breast
UACC-62 melanoma = system: UACC-62 melanoma
NCI-H226 lung = system: NCI-H226 lung
OVCAR-3 ovarian = system: OVCAR-3 ovarian
MOLT-4 leukemia = system: MOLT-4 leukemia
LOX IMVI melanoma = system: LOX IMVI melanoma
CAKI-1 renal = system: CAKI-1 renal
SR leukemia = system: SR leukemia
UO-31 renal = system: UO-31 renal
SF-295 CNS = system: SF-295 CNS
DU-145 prostate = system: DU-145 prostate
KM12 colon = system: KM12 colon
HCT-116 colon = system: HCT-116 colon
MCF7 breast = system: MCF7 breast
SK-MEL-2 melanoma = system: SK-MEL-2 melanoma
COLO 205 colon = system: COLO 205 colon
IGROV1 ovarian = system: IGROV1 ovarian
PC-3 prostate = system: PC-3 prostate
MDA-MB-435 = system: MDA-MB-435
TK-10 renal = system: TK-10 renal
U251 CNS = system: U251 CNS
CCRF-CEM leukemia = system: CCRF-CEM leukemia
OVCAR-5 ovarian = system: OVCAR-5 ovarian
SW-620 colon = system: SW-620 colon
MDA-N = system: MDA-N
786-0 renal = system: 786-0 renal
NCI-H23 lung = system: NCI-H23 lung
UACC-257 melanoma = system: UACC-257 melanoma
NCI-H522 lung = system: NCI-H522 lung
NCI/ADR-RES ovarian = system: NCI/ADR-RES ovarian
A498 renal = system: A498 renal
SN12C renal = system: SN12C renal
M14 melanoma = system: M14 melanoma
K-562 leukemia = system: K-562 leukemia
SNB-75 CNS = system: SNB-75 CNS
EKVX NSCLC = system: EKVX NSCLC
SNB-19 CNS = system: SNB-19 CNS
HOP-62 NSCLC = system: HOP-62 NSCLC
HOP-92 NSCLC = system: HOP-92 NSCLC
ACHN renal = system: ACHN renal
HCC-2998 colon = system: HCC-2998 colon
SK-OV-3 ovarian = system: SK-OV-3 ovarian
SK-MEL-5 melanoma = system: SK-MEL-5 melanoma
HT29 colon = system: HT29 colon
SK-MEL-28 melanoma = system: SK-MEL-28 melanoma
BT-549 breast = system: BT-549 breast

With Nc1ncnc2c1ncn2C1OC(CO)C2OC21 (centres undefined) the TGI (RPMI-8226 leukemia) was greater than 100 µM, the TGI (A549 NSCLC) was greater than 100 µM and the TGI (OVCAR-8 ovarian) was greater than 100 µM. For the same compound, the TGI (RXF 393 renal) was greater than 100 µM, the TGI (SF-539 CNS) was greater than 100 µM and the TGI (OVCAR-4 ovarian) was greater than 100 µM. For the same compound, the TGI (MDA-MB-231 breast) was greater than 100 µM, the TGI (MALME-3M melanoma) was greater than 10 µM and the TGI (HL-60(TB) leukemia) was greater than 100 µM. It also gave a TGI (HS 578T breast) greater than 100 µM, a TGI (NCI-H460 lung) greater than 10 µM and a TGI (SF-268 CNS) greater than 100 µM. It also gave a TGI (HCT-15 colon) greater than 10 µM, a TGI (T-47D breast) greater than 100 µM and a TGI (UACC-62 melanoma) greater than 100 µM. For the same compound, the TGI (NCI-H226 lung) was greater than 100 µM, the TGI (OVCAR-3 ovarian) was greater than 10 µM and the TGI (MOLT-4 leukemia) was greater than 100 µM. It also gave a TGI (LOX IMVI melanoma) greater than 100 µM, a TGI (CAKI-1 renal) greater than 100 µM and a TGI (SR leukemia) greater than 100 µM. For the same compound, the TGI (UO-31 renal) was greater than 100 µM, the TGI (SF-295 CNS) was greater than 100 µM and the TGI (DU-145 prostate) was greater than 100 µM. The TGI (KM12 colon) was greater than 100 µM, the TGI (HCT-116 colon) was greater than 100 µM and the TGI (MCF7 breast) was greater than 100 µM. For the same compound, the TGI (SK-MEL-2 melanoma) was greater than 100 µM, the TGI (COLO 205 colon) was greater than 100 µM and the TGI (IGROV1 ovarian) was greater than 100 µM. For the same compound, the TGI (PC-3 prostate) was greater than 100 µM, the TGI (MDA-MB-435) was greater than 10 µM and the TGI (TK-10 renal) was greater than 100 µM. It also gave a TGI (U251 CNS) greater than 100 µM, a TGI (CCRF-CEM leukemia) greater than 100 µM and a TGI (OVCAR-5 ovarian) greater than 100 µM. The TGI (SW-620 colon) was greater than 100 µM, the TGI (MDA-N) was greater than 10 µM and the TGI (786-0 renal) was greater than 10 µM. The TGI (NCI-H23 lung) was greater than 100 µM, the TGI (UACC-257 melanoma) was greater than 100 µM and the TGI (NCI-H522 lung) was greater than 100 µM. For the same compound, the TGI (NCI/ADR-RES ovarian) was greater than 10 µM, the TGI (A498 renal) was greater than 100 µM and the TGI (SN12C renal) was greater than 100 µM. The TGI (M14 melanoma) was greater than 10 µM, the TGI (K-562 leukemia) was greater than 100 µM and the TGI (SNB-75 CNS) was greater than 100 µM. The TGI (EKVX NSCLC) was greater than 100 µM, the TGI (SNB-19 CNS) was greater than 100 µM and the TGI (HOP-62 NSCLC) was greater than 100 µM. It also gave a TGI (HOP-92 NSCLC) greater than 100 µM, a TGI (ACHN renal) greater than 100 µM and a TGI (HCC-2998 colon) greater than 100 µM. The TGI (SK-OV-3 ovarian) was greater than 100 µM, the TGI (SK-MEL-5 melanoma) was greater than 100 µM and the TGI (HT29 colon) was greater than 100 µM. For the same compound, the TGI (SK-MEL-28 melanoma) was greater than 100 µM.
Compound COc1ccc2nc3n(c2c1)C(c1c(F)cccc1Cl)SC3 (centres undefined) has a TGI (RPMI-8226 leukemia) greater than 100 µM, a TGI (A549 NSCLC) greater than 100 µM and a TGI (OVCAR-8 ovarian) greater than 100 µM. For the same compound, the TGI (RXF 393 renal) was greater than 100 µM, the TGI (OVCAR-4 ovarian) was greater than 100 µM and the TGI (HL-60(TB) leukemia) was greater than 100 µM. It also gave a TGI (NCI-H460 lung) greater than 100 µM, a TGI (HCT-15 colon) greater than 100 µM and a TGI (T-47D breast) greater than 100 µM. The TGI (UACC-62 melanoma) was greater than 100 µM, the TGI (OVCAR-3 ovarian) was greater than 100 µM and the TGI (MOLT-4 leukemia) was greater than 100 µM. For the same compound, the TGI (LOX IMVI melanoma) was greater than 100 µM, the TGI (CAKI-1 renal) was greater than 100 µM and the TGI (SR leukemia) was greater than 100 µM. The TGI (UO-31 renal) was greater than 100 µM, the TGI (SF-295 CNS) was greater than 100 µM and the TGI (DU-145 prostate) was greater than 100 µM. For the same compound, the TGI (KM12 colon) was greater than 100 µM, the TGI (HCT-116 colon) was greater than 100 µM and the TGI (MCF7 breast) was greater than 100 µM. For the same compound, the TGI (SK-MEL-2 melanoma) was greater than 100 µM, the TGI (COLO 205 colon) was greater than 100 µM and the TGI (IGROV1 ovarian) was greater than 100 µM. For the same compound, the TGI (PC-3 prostate) was greater than 100 µM, the TGI (MDA-MB-435) was greater than 100 µM and the TGI (TK-10 renal) was greater than 100 µM. The TGI (U251 CNS) was greater than 100 µM, the TGI (CCRF-CEM leukemia) was greater than 100 µM and the TGI (OVCAR-5 ovarian) was greater than 100 µM. The TGI (SW-620 colon) was greater than 100 µM, the TGI (MDA-N) was greater than 100 µM and the TGI (786-0 renal) was greater than 100 µM. It also gave a TGI (NCI-H23 lung) greater than 100 µM, a TGI (UACC-257 melanoma) greater than 100 µM and a TGI (NCI/ADR-RES ovarian) greater than 100 µM. For the same compound, the TGI (A498 renal) was greater than 100 µM, the TGI (BT-549 breast) was greater than 100 µM and the TGI (SN12C renal) was greater than 100 µM. The TGI (M14 melanoma) was greater than 100 µM, the TGI (K-562 leukemia) was greater than 100 µM and the TGI (SNB-75 CNS) was greater than 100 µM. The TGI (EKVX NSCLC) was greater than 100 µM, the TGI (SNB-19 CNS) was greater than 100 µM and the TGI (HOP-62 NSCLC) was greater than 100 µM. It also gave a TGI (HOP-92 NSCLC) greater than 100 µM, a TGI (ACHN renal) greater than 100 µM and a TGI (HCC-2998 colon) greater than 100 µM. The TGI (SK-OV-3 ovarian) was greater than 100 µM, the TGI (SK-MEL-5 melanoma) was greater than 100 µM and the TGI (SK-MEL-28 melanoma) was greater than 100 µM.
